One test relates to SW620. In words: Inhibition of cancer cell growth as measured by cell number, SW620.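 Further: SW620 was included as a cell line with little or no EGFR or HER2/neu expression, in contrast to receptor-overexpressing lines.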 Format: cell-based, human. To be noted: Homo sapiens, SW-620, 48 h.
A further test concerns LS174T. Description: Inhibition of cancer cell growth as measured by cell number, LS174T. The conditions noted are these: Homo sapiens, 48 h, read-out: IC50 LS174T. In kind it is cell-based.
The test system of the next test is MCF7. In words: Inhibition of cancer cell growth as measured by cell number, MCF7.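 Further: MCF7 was included as a line with little or no EGFR or HER2/neu expression, in contrast to the receptor-overexpressing lines of the panel.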 The conditions noted are these: Homo sapiens, MCF7, 48 h, read-out: IC50 MCF7, cell number, Sulforhodamine B, 48 hours exposure; Table 5. In kind it is cell-based, human.
The test system of a further test is B7474. In words: Inhibition of cancer cell growth as measured by cell number, B7474. Format: cell-based. To be noted: Homo sapiens, 48 h, read-out: IC50 B7474.
The subject of a further test is T47D. Description: Inhibition of cancer cell growth as measured by cell number, T47D. In kind it is cell-based. To be noted: Homo sapiens, 48 h, read-out: IC50 T47D.
A further test has as its system NEC. Description: Inhibition of cancer cell growth as measured by cell number, NEC. Format: cell-based. The conditions noted are these: Homo sapiens, 48 h, read-out: IC50 NEC.
In another test the test system is CCRF-CFM. Description: Inhibition of cancer cell growth as measured by cell number, CCRF-CFM. In kind it is cell-based. To be noted: Homo sapiens, 48 h, read-out: IC50 CCRF-CFM.
The test system of a further test is SKBR3. Description: Inhibition of cancer cell growth as measured by cell number, SKBR3.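 Further: SK-BR-3 cells were selected as a line overexpressing HER2/neu.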 In kind it is cell-based, human. The conditions noted are these: Homo sapiens, SK-BR-3, 48 h.
In another test the test system is CX1. In words: Inhibition of cancer cell growth as measured by cell number, CX1. In kind it is cell-based. To be noted: Homo sapiens, CX-1, 48 h, read-out: IC50 CX1.
A further test deals with CCL228. Description: Inhibition of cancer cell growth as measured by cell number, CCL228. To be noted: Homo sapiens, 48 h, read-out: IC50 CCL228. In kind it is cell-based.
The next test deals with LOX. Description: Inhibition of cancer cell growth as measured by cell number, LOX.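 Further: LOX cells served as a line with low or absent EGFR and HER2/neu expression, in contrast to receptor-overexpressing lines.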 Format: cell-based, human. The conditions noted are these: Homo sapiens, LOX, 48 h, read-out: IC50 LOX, cell number, Sulforhodamine B, 48 hours exposure; Table 6.
In the next test the test system is LNCAP. In words: Inhibition of cancer cell growth as measured by cell number, LNCAP. The conditions noted are these: Homo sapiens, 48 h, read-out: IC50 LNCAP. In kind it is cell-based.
The target in test [1] is recombinant human MEK 1 (MAPKK) and recombinant human ERK2 (MAPK). In words: Mitogen Activated Protein Kinase (MAPK) assay, two component coupled MEK 1 / ERK2.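 Further: MEK 1-activated ERK2 phosphorylates MBP or Myc peptide with 33P-ATP, filter capture and scintillation counting, inhibitor preincubated with ERK2 30 min at 0 °C, inhibition relative to uninhibited control.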 Format: biochemical. To be noted: separate entries for the same compound = evaluated more than one time.
In test [2] the target is epidermal growth factor receptor kinase (Homo sapiens, UniProt P00533). In words: biochemical.
In test [3] the target is T1, His-tagged cytoplasmic domain of EGFR (Homo sapiens, UniProt P00533).
T1 construct: containing the EGFR cDNA encoding amino acids 645 - 1186 preceded by Met-Ala-(His)6; made in house; host or cells: Sf9 cells, recombinant baculovirus vHcEGFR52
Description: Inhibition of Epidermal Growth Factor Receptor Kinase (EGF-R) using recombinant enzyme.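 Further: radiometric kinase assay measuring radiolabeled phosphate transfer from ATP onto the peptide tyrosine by scintillation counting, control is reaction without compound, background subtracted, IC50 from dose-response curve.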 In kind it is biochemical. To be noted: recombinant enzyme; RR-SRC peptide; average of the number of tests; read-out: IC50.

For the next test, the system named is A431. In words: Inhibition of cancer cell growth as measured by cell number, A431.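 Further: human A431 line, picked because it overexpresses epidermal growth factor receptor (EGFR).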 To be noted: Homo sapiens, A-431, 48 h, read-out: IC50 A431. In kind it is cell-based, human.
In test [4] the target is Epithelial Cell Kinase (ECK) (Homo sapiens, UniProt P29317). In words: biochemical.
Description: In this standard pharmacological test procedure, a biotinylated peptide substrate is first immobilized on neutravidin-coated microtiter plates. The test drug, the Epithelial Cell Kinase (ECK), Mg^++, sodium vanadate (a protein tyrosine phosphatase inhibitor), and an appropriate buffer to maintain pH (7.2) are then added to the immobilized substrate-containing microtiter wells. ATP is then added to initiate phosphorylation. After incubation, the assay plates are washed with a suitable buffer leaving behind phosphorylated peptide which is exposed to horse radish peroxidase (HRP)-conjugated anti-phosphotyrosine monoclonal antibody. The antibody-treated plates are washed again and the HRP activity in individual wells is quantified as a reflection of degree of substrate phosphorylation.
Test [5] addresses T2, Kinase insert Domain containing Receptor (KDR: the catalytic domain of the VEGF receptor) (Homo sapiens, UniProt P35968).
T2 construct: KDR: the catalytic domain of the VEGF receptor
In words: Inhibition of Kinase insert Domain containing Receptor (KDR).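 Further: KDR phosphorylating a Glu:Tyr 4:1 copolymer with P32- or P33-labelled ATP, Mg++ and vanadate, read as acid-insoluble radiolabel, compared with compound-free reaction.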 Format: biochemical. To be noted: pH 7.2; radioactive format; read-out: KDR IC50 (converted).
Description: In this standard pharmacological test procedure, KDR protein is mixed, in the presence or absence of a inhibitor compound, with a substrate peptide to be phosphorylated (a copolymer of glutamic acid and tyrosine, E:Y :: 4:1) and other cofactors such as Mg^++ and sodium vanadate (a protein tyrosine phosphatase inhibitor) in an appropriate buffer to maintain pH (7.2). ATP and a radioactive tracer (either P^32-or P^33- labeled ATP) is then add to initiate phosphorylation. After incubation, the radioactive phosphate associated with the acid-insoluble fraction of the assay mixture is then quantified as reflection of substrate phosphorylation.

Where [6] appears, read: read-out: IC50 SW620, cell number, Sulforhodamine B, 48 hours exposure, Table 4.
The mark [7] stands for this setting: read-out: IC50 SKBR3, cell number, Sulforhodamine B, 48 hours exposure, Table 7.

≈ marks a conversion by molar mass, not a printed value. Like-named read-outs stand apart in the source and are kept apart here.

epidermal growth factor receptor kinase, sequence (P00533 25-1210): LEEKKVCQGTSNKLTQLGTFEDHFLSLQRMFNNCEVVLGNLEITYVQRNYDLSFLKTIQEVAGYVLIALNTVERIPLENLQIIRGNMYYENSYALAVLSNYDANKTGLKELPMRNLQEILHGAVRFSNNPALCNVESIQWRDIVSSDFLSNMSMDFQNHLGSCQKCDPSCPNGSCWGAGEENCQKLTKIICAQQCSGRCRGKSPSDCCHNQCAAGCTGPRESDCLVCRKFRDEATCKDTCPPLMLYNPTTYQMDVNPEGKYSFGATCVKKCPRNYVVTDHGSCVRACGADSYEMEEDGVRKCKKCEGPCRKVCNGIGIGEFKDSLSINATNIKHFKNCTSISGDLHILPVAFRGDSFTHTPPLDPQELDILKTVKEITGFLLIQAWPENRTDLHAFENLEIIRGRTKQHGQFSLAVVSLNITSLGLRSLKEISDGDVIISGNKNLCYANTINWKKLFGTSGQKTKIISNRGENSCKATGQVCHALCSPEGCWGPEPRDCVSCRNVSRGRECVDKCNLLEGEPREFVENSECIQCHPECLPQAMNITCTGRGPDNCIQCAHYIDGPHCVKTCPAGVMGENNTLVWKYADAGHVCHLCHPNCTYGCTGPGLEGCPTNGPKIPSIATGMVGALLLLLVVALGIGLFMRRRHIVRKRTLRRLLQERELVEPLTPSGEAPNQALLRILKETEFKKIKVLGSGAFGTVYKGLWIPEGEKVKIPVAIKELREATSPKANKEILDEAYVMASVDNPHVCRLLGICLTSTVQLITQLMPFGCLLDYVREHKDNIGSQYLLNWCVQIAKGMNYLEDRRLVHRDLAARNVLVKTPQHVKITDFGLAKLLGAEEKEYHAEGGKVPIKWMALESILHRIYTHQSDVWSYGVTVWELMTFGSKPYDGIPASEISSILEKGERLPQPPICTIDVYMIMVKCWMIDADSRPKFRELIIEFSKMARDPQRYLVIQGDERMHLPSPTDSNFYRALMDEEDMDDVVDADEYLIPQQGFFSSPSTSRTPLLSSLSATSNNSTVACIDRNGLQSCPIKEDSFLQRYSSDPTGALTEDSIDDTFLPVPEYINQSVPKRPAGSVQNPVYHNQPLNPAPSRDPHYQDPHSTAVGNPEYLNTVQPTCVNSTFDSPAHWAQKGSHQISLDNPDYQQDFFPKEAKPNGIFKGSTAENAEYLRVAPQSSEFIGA
T2 sequence (P35968 834-1162 limits assumed): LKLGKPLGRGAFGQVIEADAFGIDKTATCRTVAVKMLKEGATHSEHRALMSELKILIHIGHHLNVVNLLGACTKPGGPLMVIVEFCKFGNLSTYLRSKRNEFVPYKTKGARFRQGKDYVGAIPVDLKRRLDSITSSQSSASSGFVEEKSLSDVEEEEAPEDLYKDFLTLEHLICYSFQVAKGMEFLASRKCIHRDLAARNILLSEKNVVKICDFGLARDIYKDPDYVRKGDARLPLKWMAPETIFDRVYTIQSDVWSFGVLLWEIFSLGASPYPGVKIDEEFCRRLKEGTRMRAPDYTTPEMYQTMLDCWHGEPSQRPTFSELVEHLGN
Epithelial Cell Kinase (ECK), sequence (P29317 24-976, species assumed): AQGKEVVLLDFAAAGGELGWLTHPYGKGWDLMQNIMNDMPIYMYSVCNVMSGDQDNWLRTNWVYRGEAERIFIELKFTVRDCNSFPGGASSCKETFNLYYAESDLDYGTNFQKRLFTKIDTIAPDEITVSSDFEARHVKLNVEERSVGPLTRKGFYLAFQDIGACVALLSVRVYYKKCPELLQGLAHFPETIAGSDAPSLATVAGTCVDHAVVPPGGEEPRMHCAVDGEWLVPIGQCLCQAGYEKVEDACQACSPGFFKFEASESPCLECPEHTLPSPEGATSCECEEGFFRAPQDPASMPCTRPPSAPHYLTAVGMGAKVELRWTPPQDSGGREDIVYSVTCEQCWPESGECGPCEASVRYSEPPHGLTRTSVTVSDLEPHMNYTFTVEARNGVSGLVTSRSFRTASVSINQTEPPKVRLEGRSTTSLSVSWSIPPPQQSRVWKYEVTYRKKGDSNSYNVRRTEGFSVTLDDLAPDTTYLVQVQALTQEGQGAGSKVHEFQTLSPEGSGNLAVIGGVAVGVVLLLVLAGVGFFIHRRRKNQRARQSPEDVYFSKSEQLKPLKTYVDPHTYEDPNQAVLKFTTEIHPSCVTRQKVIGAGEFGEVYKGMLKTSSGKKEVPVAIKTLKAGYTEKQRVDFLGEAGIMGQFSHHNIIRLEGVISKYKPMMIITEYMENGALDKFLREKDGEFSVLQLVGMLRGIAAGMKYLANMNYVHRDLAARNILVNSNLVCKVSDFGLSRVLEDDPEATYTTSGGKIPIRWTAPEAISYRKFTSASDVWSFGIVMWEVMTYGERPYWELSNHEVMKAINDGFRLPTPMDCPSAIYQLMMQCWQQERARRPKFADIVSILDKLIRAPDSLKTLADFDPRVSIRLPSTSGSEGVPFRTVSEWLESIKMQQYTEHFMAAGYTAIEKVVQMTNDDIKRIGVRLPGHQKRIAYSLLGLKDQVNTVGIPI
T1 sequence (P00533 669-1210): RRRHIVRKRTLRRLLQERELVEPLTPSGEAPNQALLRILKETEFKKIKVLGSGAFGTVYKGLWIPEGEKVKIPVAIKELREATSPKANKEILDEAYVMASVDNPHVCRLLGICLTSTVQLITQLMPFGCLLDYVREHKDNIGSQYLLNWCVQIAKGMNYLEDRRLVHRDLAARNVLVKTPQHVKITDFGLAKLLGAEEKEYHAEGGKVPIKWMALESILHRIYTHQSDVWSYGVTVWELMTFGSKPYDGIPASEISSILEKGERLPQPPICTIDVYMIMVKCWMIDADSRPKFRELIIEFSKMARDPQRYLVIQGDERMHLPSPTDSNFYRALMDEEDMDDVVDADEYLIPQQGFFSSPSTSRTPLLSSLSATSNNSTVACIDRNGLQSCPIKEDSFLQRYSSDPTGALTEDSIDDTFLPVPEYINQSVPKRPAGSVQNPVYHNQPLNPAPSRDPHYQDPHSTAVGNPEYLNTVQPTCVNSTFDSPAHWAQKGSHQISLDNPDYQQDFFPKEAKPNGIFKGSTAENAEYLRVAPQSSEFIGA
Description for A431: (§1) The cell lines were chosen since they overexpressed epidermal growth factor receptor (EGFR) (i.e. A431) or HER2/neu (SKBR3), or had little to no expression of the these receptors (SW620, LOX, MCF7).
Description for LOX: as §1
Description for MCF7: as §1
Description for SKBR3: as §1
Description for SW620: as §1

On to `COc1cc2ncc(C#N)c(Nc3cccc(C(F)(F)F)c3)c2cc1OC` [Example 42, 4-[(3-Trifluoromethylphenyl)amino]-6,7-dimethoxy-3-quinolinecarbonitrile], for which the IC50 in the test with SW620 (setting [6]) stood at 31.2 µg/mL (≈ 83.5 µM); with LS174T, 5.97 µg/mL (≈ 16 µM); with MCF7 it was 6.14 µg/mL (≈ 16.5 µM); in the test with B7474, 6.78 µg/mL (≈ 18.2 µM); in the test with T47D it was 6.78 µg/mL (≈ 18.2 µM); in the test on NEC, 6.47 µg/mL (≈ 17.3 µM). The IC50 with CCRF-CFM came out at 5.23 µg/mL (≈ 14 µM); with SKBR3 (setting [7]), 12.5 µg/mL (≈ 33.6 µM).

With `COc1ccc(Nc2c(C#N)cnc3cc(OC)c(OC)cc23)cc1OC` [Example 43, 4-[(3,4-Dimethoxyphenyl)amino]-6,7-dimethoxy-3-quinolinecarbonitrile], the IC50 in the test with SW620 (setting [6]) came to 4.33 µg/mL (≈ 11.8 µM); in the test with CX1, 3.43 µg/mL (≈ 9.38 µM); in the test with LS174T it was 4.22 µg/mL (≈ 11.6 µM); in the test with CCL228 it was 2.56 µg/mL (≈ 7 µM); with MCF7, 5.83 µg/mL (≈ 16 µM); in the test with T47D, 4.5 µg/mL (≈ 12.3 µM). Moreover, the half-maximal inhibitory concentration (IC50) came to 2.86 µg/mL (≈ 7.83 µM) with LOX, 4.53 µg/mL (≈ 12.4 µM) in the test with LNCAP, 5.19 µg/mL (≈ 14.2 µM) in the test with SKBR3 (setting [7]) and 30000 nM in test [1].

Molecule `N#Cc1cnc2ccc(NC(=O)/C=C/Cl)cc2c1Nc1cccc(Br)c1` [Example 51, N-[4-[(3-Bromophenyl)amino]-3-cyano-6-quinolinyl]-3(E)-chloro-2-propenamide] returned an IC50 in test [2] of 0.05 nM.

Consider `N#Cc1cnc2ccc(NC(=O)/C=C\Cl)cc2c1Nc1cccc(Br)c1` [Example 52, N-[4-[(3-Bromophenyl)amino]-3-cyano-6-quinolinyl]-3(Z)-chloro-2-propenamide], for which it took 10 nM to reach half-maximal inhibition in test [2] (IC50).

In turn, `C=C(C)C(=O)Nc1ccc2ncc(C#N)c(Nc3cccc(Br)c3)c2c1` [Example 53, N-[4-[(3-Bromophenyl)amino]-3-cyano-6-quinolinyl]-2-methyl-2-propenamide] displayed an IC50 in [2] of 7 nM.

In turn, `C=CC(=O)Nc1ccc2ncc(C#N)c(Nc3ccc(Br)c(Br)c3)c2c1` [Example 54, N-[4-[(3,4-Dibromophenyl)amino]-3-cyano-6-quinolinyl]-2-propenamide] displayed a half-inhibitory concentration (IC50) in test [2] of 7 nM.

Take `N#Cc1cnc2ccc(NC(=O)C#CCO)cc2c1Nc1cccc(Br)c1` [Example 57, N-[4-[(3-Bromophenyl)amino]-3-cyano-6-quinolinyl]-4-hydroxy-2-butynamide]: it took 8 nM to reach half-maximal inhibition in test [2] (IC50).

In turn, `N#Cc1cnc2ccc(NC(=O)C#CCN3CCOCC3)cc2c1Nc1cccc(Br)c1` [Example 58, N-[4-[(3-Bromophenyl)amino]-3-cyano-6-quinoliny]-4-morpholino-2-butynamide] registered an IC50 in test [2] of 2 nM.

In test [2], `CN(C)CC#CC(=O)Nc1ccc2ncc(C#N)c(Nc3cccc(Br)c3)c2c1` [Example 59, N-[4-[(3-Bromophenyl)amino]-3-cyano-6-quinolinyl]-4-dimethylamino-2-butynamide] displayed an IC50 of 0.1 nM.

As for `CN(C)CC=CC(=O)Nc1ccc2ncc(C#N)c(Nc3ccc(F)c(Cl)c3)c2c1` [Example 145], the IC50 in test [3] was 60 nM; in the test on SW620 (read-out: IC50 SW620) it was 0.4 µg/mL (≈ 0.944 µM); in the test with A431, 0.03 µg/mL (≈ 0.0708 µM); with SKBR3 (read-out: IC50 SKBR3), 0.03 µg/mL (≈ 0.0708 µM); in test [4] it was > 47200 nM; in [5], > 70800 nM. Moreover, the IC50 in [1] came out at 35000 nM.

These data come from patent EP0973746B1, “SUBSTITUTED 3-CYANO QUINOLINES” (Wyeth Holdings Corporation, priority 1997, dated 1998).
